Source: ChEMBL document CHEMBL4251740, “Further Exploring Solvent-Exposed Tolerant Regions of Allosteric Binding Pocket for Novel HIV-1 NNRTIs Discovery” (ACS Med Chem Lett, 2018)
Calls of active or inactive are those of the source. The calls are words filed in the database; no cut-off is given here.

Assays:
[1] = system: Human immunodeficiency virus type 1 reverse transcriptase (Human immunodeficiency virus 1), Q72547 [Y181C]; assay: Inhibition of HIV1 reverse transcriptase Y181C mutant infected in human MT4 cells assessed as protection against virus-induced cytotoxicity by MTT assay; type: cell-based
[2] = Selectivity index, ratio of CC50 for human MT4 cells to EC50 for HIV1 RES056 reverse transcriptase K103N/Y181C double mutant infected in human MT4 cells; type: toxicity, cell-based; details: read-out: Ratio CC50/EC50
[3] = system: Human immunodeficiency virus type 1 reverse transcriptase (Human immunodeficiency virus 1), Q72547 [L100I]; assay: Inhibition of HIV1 reverse transcriptase L100I mutant infected in human MT4 cells assessed as protection against virus-induced cytotoxicity by MTT assay; type: cell-based
[4] = Selectivity index, ratio of CC50 for human MT4 cells to EC50 for wild-type HIV1 3B reverse transcriptase infected in human MT4 cells; type: toxicity, cell-based; details: read-out: Ratio CC50/EC50
[5] = system: Human immunodeficiency virus type 1 reverse transcriptase (Human immunodeficiency virus 1), Q72547 [R221A]; assay: Inhibition of HIV1 reverse transcriptase Y188L mutant infected in human MT4 cells assessed as protection against virus-induced cytotoxicity by MTT assay; type: cell-based
[6] = (§1) Cytotoxicity against human MT4 cells assessed as reduction in cell viability by MTT assay; type: cell-based; details: MT4 cells
[7] = system: Human immunodeficiency virus type 1 reverse transcriptase (Human immunodeficiency virus 1), Q72547 [F227L,V106A]; assay: Inhibition of HIV1 RES056 reverse transcriptase F227L/V106A double mutant infected in human MT4 cells assessed as protection against virus-induced cytotoxicity by MTT assay; type: cell-based
[8] = system: Human immunodeficiency virus 1; assay: Fold resistance, ratio of EC50 for HIV1 reverse transcriptase Y181C mutant infected in human MT4 cells to EC50 for wild-type HIV1 3B reverse transcriptase infected in human MT4 cells; type: cell-based
[9] = system: Human immunodeficiency virus type 1 reverse transcriptase (Human immunodeficiency virus 1), Q72547 [K103N]; assay: Inhibition of HIV1 reverse transcriptase K103N mutant infected in human MT4 cells assessed as protection against virus-induced cytotoxicity by MTT assay; type: cell-based
[10] = system: Human immunodeficiency virus 1; assay: Fold resistance, ratio of EC50 for HIV1 reverse transcriptase K103N mutant infected in human MT4 cells to EC50 for wild-type HIV1 3B reverse transcriptase infected in human MT4 cells; type: cell-based
[11] = system: Human immunodeficiency virus 1; assay: Fold resistance, ratio of EC50 for HIV1 reverse transcriptase E138K mutant infected in human MT4 cells to EC50 for wild-type HIV1 3B reverse transcriptase infected in human MT4 cells; type: cell-based
[12] = system: MT4; assay: as §1; type: cell-based; details: mt4
[13] = system: Human immunodeficiency virus type 1 reverse transcriptase (Human immunodeficiency virus 1), Q72547 [K103N,Y181C]; assay: Potency index, ratio of ETV EC50 to test compound EC50 for HIV1 RES056 reverse transcriptase K103N/Y181C double mutant infected in human MT4 cells; type: cell-based
[14] = system: Human immunodeficiency virus type 1 reverse transcriptase (Human immunodeficiency virus 1), Q72547 [F227L,V106A]; assay: Potency index, ratio of ETV EC50 to test compound EC50 for HIV1 RES056 reverse transcriptase F227L/V106A double mutant infected in human MT4 cells; type: cell-based
[15] = system: Human immunodeficiency virus type 1 reverse transcriptase (Human immunodeficiency virus 1), Q72547 [L100I]; assay: Potency index, ratio of ETV EC50 to test compound EC50 for HIV1 reverse transcriptase L100I mutant infected in human MT4 cells; type: cell-based
[16] = molecular target: Human immunodeficiency virus type 1 reverse transcriptase (Human immunodeficiency virus 1) (UniProt Q72547); assay: Potency index, ratio of ETV EC50 to test compound EC50 for wild-type HIV1 3B reverse transcriptase infected in human MT4 cells; type: cell-based
[17] = system: Human immunodeficiency virus type 1 reverse transcriptase (Human immunodeficiency virus 1), Q72547 [E138K]; assay: Potency index, ratio of ETV EC50 to test compound EC50 for HIV1 reverse transcriptase E138K mutant infected in human MT4 cells; type: cell-based
[18] = system: Human immunodeficiency virus type 1 reverse transcriptase (Human immunodeficiency virus 1), Q72547 [R221A]; assay: Potency index, ratio of ETV EC50 to test compound EC50 for HIV1 reverse transcriptase Y188L mutant infected in human MT4 cells; type: cell-based
[19] = system: Human immunodeficiency virus type 1 reverse transcriptase (Human immunodeficiency virus 1), Q72547 [K103N]; assay: Potency index, ratio of ETV EC50 to test compound EC50 for HIV1 reverse transcriptase K103N mutant infected in human MT4 cells; type: cell-based

Structure (SMILES) | selectivity ratio [2] | selectivity ratio [4] | CC50 [6] [µM] | further results
Cc1cc(C#N)cc(C)c1Oc1nc(NC2CCN(Cc3c[nH]cn3)CC2)nc2ccsc12 | 21 | 4420 | 24.3 | inhibition [1]: inactive; inhibition [3]: inactive; inhibition [5]: inactive; inhibition [7]: inactive
Cc1cc(C#N)cc(C)c1Oc1nc(NC2CCN(Cc3ccc(S(C)(=O)=O)cc3)CC2)nc2ccn(COCc3ccccc3)c12 | 17 | 459 | 10 | Ratio EC50 [8]: 0.5 to 0.7
Cc1cn([C@H]2C[C@H](N=[N+]=[N-])[C@@H](CO)O2)c(=O)[nH]c1=O [ZIDOVUDINE] | > 448 | > 1000 | 7.48 | –
Cc1cc(C#N)cc(C)c1Oc1nc(NC2CCN(Cc3cc(=O)[nH]c(=O)[nH]3)CC2)nc2ccsc12 | 15 | 18600 | 133 | inhibition [1]: inactive; inhibition [3]: inactive; inhibition [5]: inactive; inhibition [7]: inactive
Cc1cc(C#N)cc(C)c1Oc1nc(NC2CCN(Cc3ccco3)CC2)nc2ccsc12 | – | > 76500 | > 254 | inhibition [1]: inactive; inhibition [3]: inactive; inhibition [5]: inactive; inhibition [9]: Active; inhibition [7]: inactive
Cc1cc(C#N)cc(C)c1Oc1nc(Nc2ccc(C#N)cc2)nc(N)c1Br [ETRAVIRINE] | – | – | 2.16 to 4.59 | –
Cc1cc(C#N)cc(C)c1Oc1nc(NC2CCN(Cc3ccc(S(C)(=O)=O)cc3)CC2)nc2cc[nH]c12 | 16 | 589 | 8.12 | Ratio EC50 [10]: 0.3 to 0.6
Cc1cc(C#N)cc(C)c1Oc1nc(NC2CCN(Cc3cn(S(C)(=O)=O)cn3)CC2)nc2ccsc12 | 8 | 3720 | 21.1 | inhibition [1]: inactive; inhibition [3]: inactive; inhibition [5]: inactive; inhibition [7]: inactive
O=C1Nc2ccc(Cl)cc2[C@@](C#CC2CC2)(C(F)(F)F)O1 [EFAVIRENZ] | – | – | > 6.34 | –
Cc1cc(C#N)cc(C)c1Oc1nc(NC2CCN(Cc3ccc(C(N)=O)cc3)CC2)nc2cc[nH]c12 | 118 | 1830 | 15.9 | Ratio EC50 [10]: 0.3 to 0.6
Cc1cc(C#N)cc(C)c1Oc1nc(NC2CCN(Cc3ccc(S(N)(=O)=O)cc3)CC2)nc2ccn(COCc3ccccc3)c12 | 10 | 632 | 4.84 | Ratio EC50 [8]: 0.5 to 0.7
Cc1cc(C#N)cc(C)c1Nc1nc(NC2CCN(Cc3ccc(S(N)(=O)=O)cc3)CC2)nc2ccsc12 | > 7440 | > 159000 | > 227 | –
Cc1cc(C#N)cc(C)c1Oc1nc(NC2CCN(Cc3ccc(S(C)(=O)=O)cc3)CC2)nc2ccn(S(=O)(=O)c3ccccc3)c12 | 26 | 270 | 5.15 | –
Cc1ccnc2c1NC(=O)c1cccnc1N2C1CC1 [NEVIRAPINE] | – | – | > 15 | –
Cc1cc(C#Cc2ccccn2)cc(C)c1Oc1nc(NC2CCN(Cc3ccc(S(N)(=O)=O)cc3)CC2)nc2ccsc12 | 12 | 1130 | 10.3 | –
Cc1cc(C#N)cc(C)c1Oc1nc(NC2CCN(Cc3ccc(C(N)=O)cc3)CC2)nc2ccn(COCc3ccccc3)c12 | 9 | 177 | 6.44 | Ratio EC50 [11]: 0.9; Ratio EC50 [8]: 0.5 to 0.7
Cc1cc(C#N)cc(C)c1Oc1nc(NC2CCN(Cc3n[nH]c(=O)n3C)CC2)nc2ccsc12 | > 15 | > 18500 | > 254 | –
Cc1cc(/C=C/C#N)cc(C)c1Nc1nc(NC2CCN(Cc3ccc(S(N)(=O)=O)cc3)CC2)nc2ccsc12 | 419 | 1880 | 2.3 | –
Cc1cc(C#N)cc(C)c1Oc1nc(NC2CCN(Cc3ccc(C(N)=O)cc3)CC2)nc2ccn(S(=O)(=O)c3ccccc3)c12 | 2 | 227 | – | CC50 [12]: > 39.3 µM
Cc1cc(C#Cc2ccncc2)cc(C)c1Oc1nc(NC2CCN(Cc3ccc(S(N)(=O)=O)cc3)CC2)nc2ccsc12 | 52 | 340 | 11.5 | –
Cc1cc(C#N)cc(C)c1Oc1nc(NC2CCN(Cc3ccc(S(N)(=O)=O)cc3)CC2)nc2ccn(S(=O)(=O)c3ccccc3)c12 | 33 | 454 | 3.67 | –
Cc1cc(C#Cc2cccnc2)cc(C)c1Oc1nc(NC2CCN(Cc3ccc(S(N)(=O)=O)cc3)CC2)nc2ccsc12 | 42 | 157 | 6.39 | –
Cc1cc(C#N)cc(C)c1Oc1nc(NC2CCN(Cc3ccc(S(N)(=O)=O)cc3)CC2)nc2cc[nH]c12 | 61 | 1050 | 1.91 | Ratio EC50 [13]: 1.5 to 2.6; Ratio EC50 [14]: 1.5 to 2.6; Ratio EC50 [15]: 1.5 to 2.6; Ratio EC50 [16]: 1.5 to 2.6; Ratio EC50 [17]: 4 to 5; Ratio EC50 [10]: 0.3 to 0.6; Ratio EC50 [18]: 4 to 5; Ratio EC50 [19]: 4 to 5
Cc1cc(C#N)cc(C)c1Oc1nc(NC2CCN(Cc3ccc(N4CCCC4)cc3)CC2)nc2ccsc12 | < 1 | 133 | 4.35 | –
